According to patent US12312370B2, “Immunoproteasome inhibitors” (Principia Biopharma Inc., priority 2017, dated 2025):
Where two headings read alike, the source gives them in different places.

Tests used:
[1] = test system: murine DSS-induced colitis model; conditions: cited from earlier work
Th1/17 differentiation [2] = conditions: mouse; cited from earlier work
[3] = test system: murine collagen-induced arthritis; conditions: cited from earlier work
MRL/lpr lupus model = conditions: cited from earlier work
Th1/17 differentiation [4] = conditions: human; cited from earlier work
[5] = test system: Hashimoto's thyroiditis model; conditions: autoantibody-driven Hashimoto's thyroiditis model; cited from earlier work
[6] = test system: multiple myeloma cell lines and primary patient tumor cells; conditions: including those resistant to conventional and novel prior therapies; cited from earlier work
prostate PC-3 cell line = conditions: PC-3 cell line in vitro; cited from earlier work
tumor growth = conditions: in vivo; cited from earlier work
[7] = target: immunoproteasome LPM2/β1i subunit (Homo sapiens, UniProt P28065); test: Caliper-based proteasome enzymatic activity assay, LMP2; type: biochemical; conditions: human recombinant immunoproteasome 0.3 nM, FAM-labeled peptide substrate 1 μM, rt 2 h
[8] = target: constitutive proteasome β5c unit (Homo sapiens, UniProt P28074); test: Caliper-based proteasome enzymatic activity assay, β5c; type: biochemical; conditions: human recombinant constitutive proteasome 0.3 nM, FAM-labeled peptide substrate 1 μM, rt 3 h; read-out: β5c subunit IC50
PBMC/LMP7 [9] = target: T1, PBMC/LMP7 (Homo sapiens, UniProt P28062); test: Proteasome-Glo inhibition of proteasome activity in cells, PBMC/LMP7; type: cell-based; conditions: 2 h incubation at 37° C.
Protocol: (§1) The cell-based effects of a compound described herein on the immunoproteasome were determined by measuring inhibition of proteasome activity in cells using the Proteasome-Glo™ Cell-Based Reagent (Promega, Madison WI). The Proteasome-Glo™ assay contains a specific luminogenic proteasome substrate in a buffer optimized for cell permeabilization, proteasome activity, and luciferase activity. For the chymotrypsin-like activity (LMP7 and β5c), the peptide substrate is Suc-LLVY-aminoluciferin (Succinyl-leucine-leucine-valine-tyrosine-aminoluciferin). Cleavage of the substrate by proteasome results in luminescent signal which is proportional to the proteasome activity. The cell line THP-1 (a monocytic leukemia cell line enriched in immunoproteasome), the cell line HT-29 (a colorectal adenocarcinoma cell line enriched in constitutive proteasome), and primary human peripheral blood mononuclear cells (PBMC) were used to assess proteasome activity. Cells were seeded in a 96-well plate at 10,000 cells per well in RPMI 1640 high glucose medium with 10% fetal bovine scrum (FBS). Compound dilutions were added to cells starting at a concentration of 5 uM and decreasing in tripling dilutions. The final DMSO concentration was 1%. The concentration range was adjusted as needed for compounds of different potencies. The cells treated with compounds were incubated for 2 h at 37° C. in 5% CO2. At the end of the 2 hour incubation period, cells were transferred to white 384 well assay plates. 20 uL of Proteasome-Glo™ Reagent was added to each well and incubated for 10 minutes at rt. The plate was read in the Analyst HT instrument (Molecular Devices, Sunnyvale, CA) using luminescence mode. The percent inhibition of activity was plotted as a function of log compound concentration. The IC50 was then calculated for each compound using Prism software from GraphPad Software Inc. (San Diego, CA).

HT29/B5c [10] = target: T2, HT29/B5c (Homo sapiens, UniProt P28074); test: Durability of binding in cells, wash-out assay, HT29/B5c; type: cell-based; conditions: 2 h incubation, inhibitor washout
Protocol: (§2) The durability of binding of proteasome inhibitors was assessed in cells using wash-out assays and the Proteasome-Glo™ Reagent kit. THP-1 cells. HT-29 cells, or PBMC were incubated with an 8-fold dilution series of inhibitor for 2 h. Following 2 h of incubation, cells were washed using 3 occasions of centrifugation followed by resuspension in culture medium. Following inhibitor washout, cells were returned to culture for either 30 minutes, 4 h, or 18 h. Cells were then transferred to white 384 plates, and 20 uL of Proteasome-Glo™ Reagent was added to each well for 10 minutes. Plates were then read on an Analyst HT plate reader using luminescence mode. The percent inhibition of activity was plotted as a function of log compound concentration. The IC50 was then calculated for each compound using Prism software from GraphPad.

[11] = target: immunoproteasome LMP7/B5i subunit (Homo sapiens, UniProt P28062); test: Caliper-based proteasome enzymatic activity assay, LMP7; type: biochemical; conditions: human recombinant immunoproteasome 0.3 nM, FAM-labeled peptide substrate 1 μM, rt 3 h; read-out: LMP7 subunit IC50
PBMC/LMP7 [12] = target: T1, PBMC/LMP7; test: Durability of binding in cells, wash-out assay, PBMC/LMP7; type: cell-based; conditions: 2 h incubation, inhibitor washout
Protocol: as §2

PBMC/LMP2 [13] = target: T3, PBMC/LMP2 (Homo sapiens, UniProt P28065); test: Durability of binding in cells, wash-out assay, PBMC/LMP2; type: cell-based; conditions: 2 h incubation, inhibitor washout
Protocol: as §2

PBMC/LMP2 [14] = target: T3, PBMC/LMP2; test: Proteasome-Glo inhibition of proteasome activity in cells, PBMC/LMP2; type: cell-based; conditions: 2 h incubation at 37° C.
HT29/B5c [15] = target: T2, HT29/B5c; test: Proteasome-Glo inhibition of proteasome activity in cells, HT29/B5c; type: cell-based; conditions: HT-29 cells, 2 h incubation at 37° C.
Protocol: as §1

| SMILES | IC50 [7] [nM] | IC50 [8] [nM] | IC50 (PBMC/LMP7 [9]) [nM] | IC50 [11] [nM] | IC50 (HT29/B5c [15]) [nM] | other results |
| --- | --- | --- | --- | --- | --- | --- |
| COc1ccc(C[C@H](NC(=O)[C@H](C)NC(=O)CN2CCOCC2)C(=O)N[C@@H](Cc2ccccc2)C(=O)[C@@]2(C)CO2)cc1 [PR-957] |  |  |  |  |  | inflammation and tissue destruction [1]: reduced inflammation and tissue destruction; Th1/17 differentiation (Th1/17 differentiation [2]): potently block; disease activity [3]: significantly inhibit disease activity; disease progression (MRL/lpr lupus model): prevented disease progression; plasma cell numbers and anti-dsDNA IgG levels (MRL/lpr lupus model): reduced plasma cell numbers and anti-dsDNA IgG levels; Th1/17 differentiation (Th1/17 differentiation [4]): potently block; efficacy [5]: efficacious |
| CC1=C(C(=O)N[C@H](C)C(=O)N[C@@H](Cc2c[nH]c3ccccc23)C(=O)N[C@@H](Cc2ccccc2)C(=O)[C@@]2(C)CO2)Cc2ccccc21 [PR-924] |  |  |  |  |  | growth of multiple myeloma cell lines and primary patient tumor cells [6]: inhibit growth |
| CCCCCCC(=O)N[C@@H](C)C(=O)N[C@@H](CC(C)C)C(=O)[C@@]1(CO[Si](C)(C)C(C)(C)C)CO1 [UK-101] |  |  |  |  |  | apoptosis (prostate PC-3 cell line): induced apoptosis; tumor growth (tumor growth): significantly suppressed tumor growth |
| CC(C)C=C(C#N)C(=O)N1CCC[C@@H]1CNC(=O)N[C@@H](Cc1ccccc1)B(O)O [Example 32, ((R)-1-(3-(((R)-1-(2-cyano-4-methylpent-2-enoyl)pyrrolidin-2-yl)methyl)ureido)-2-phenylethyl)boronic acid] | > 5000 | > 5000 | 110 | 37.2 |  |  |
| CC(C)C=C(C#N)C(=O)N1CCCC[C@@H]1COC[C@H](NCC(F)(F)F)C(=O)N[C@@H](Cc1ccccc1)B(O)O [Example 25, ((R)-1-((S)-3-(((R)-1-(2-cyano-4-methylpent-2-enoyl)piperidin-2-yl)methoxy)-2-((2,2,2-trifluoroethyl)amino)propanamido)-2-phenylethyl)boronic acid] | 701 | 411 | 28 | 10 |  |  |
| CC(C)C=C(C#N)C(=O)N1CCC(CCCC(=O)N[C@@H](Cc2ccccc2)B(O)O)CC1 [Example 29, (R)-(1-(4-(1-(2-cyano-4-methylpent-2-enoyl)piperidin-4-yl)butanamido)-2-phenylethyl)boronic acid] | > 5000 | 964 | 307 | 319 | 3590 |  |

More lines, main results first:

| IC50 [7] [nM] | IC50 [8] [nM] | IC50 (PBMC/LMP7 [9]) [nM] | IC50 [11] [nM] | IC50 (HT29/B5c [15]) [nM] | SMILES | other results |
| --- | --- | --- | --- | --- | --- | --- |
| 138 | 2.4 | 31 | 1.7 | 60 | CC(C)C=C(C#N)C(=O)N1CCC[C@@H]1COC[C@H](NC(=O)c1cc(Cl)ccc1Cl)C(=O)N[C@@H](Cc1ccccc1)B(O)O [Example 14, ((R)-1-((S)-3-(((R)-1-(2-cyano-4-methylpent-2-enoyl)pyrrolidin-2-yl)methoxy)-2-(2,5-dichlorobenzamido)propanamido)-2-phenylethyl)boronic acid] | IC50 (HT29/B5c [10]; 30 min in culture): 82 nM; IC50 (HT29/B5c [10]; 4 hr in culture): 87 nM; IC50 (HT29/B5c [10]; 18 hr in culture): 1850 nM; IC50 (PBMC/LMP7 [12]; 30 min in culture): 50 nM; IC50 (PBMC/LMP7 [12]; 4 hr in culture): 93 nM; IC50 (PBMC/LMP7 [12]; 18 hr in culture): 146 nM; IC50 (PBMC/LMP2 [13]; 30 min in culture): 27 nM; IC50 (PBMC/LMP2 [13]; 4 hr in culture): 505 nM; IC50 (PBMC/LMP2 [13]; 18 hr in culture): 2960 nM; IC50 (PBMC/LMP2 [14]): 274 nM |
| > 5000 | 292 | 50 | 67.1 | 242 | CC(C)C=C(C#N)C(=O)NCCCC[C@H](NCC(F)(F)F)C(=O)N[C@@H](Cc1ccccc1)B(O)O [Example 13, ((R)-1-((S)-6-(2-cyano-4-methylpent-2-enamido)-2-((2,2,2-trifluoroethyl)amino)hexanamido)-2-phenylethyl)boronic acid] |  |
| 79 | 4.4 | 39 | 2.4 |  | CC(C)C=C(C#N)C(=O)NCCCC[C@H](NC(=O)c1cc(Cl)ccc1Cl)C(=O)N[C@@H](Cc1ccccc1)B(O)O [Example 8, ((R)-1-((S)-6-(2-cyano-4-methylpent-2-enamido)-2-(2,5-dichlorobenzamido)hexanamido)-2-phenylethyl)boronic acid] |  |
| 2.7 | 5 | 35 | 4.3 | 141 | C=CC(=O)N(C)c1cccc(C[C@H](NC(=O)c2cc(Cl)ccc2Cl)C(=O)N[C@@H](Cc2ccccc2)B(O)O)c1 [Example 15, ((R)-1-((S)-2-(2,5-dichlorobenzamido)-3-(3-(N-methylacrylamido)phenyl)propanamido)-2-phenylethyl)boronic acid] |  |
|  | 4 | 390 | 2.6 |  | CC(=O)N[C@@H](CCCCNC(=O)C(C#N)=CC(C)C)C(=O)N[C@@H](Cc1ccccc1)B(O)O [Example 11, ((R)-1-((S)-2-acetamido-6-(2-cyano-4-methylpent-2-enamido)hexanamido)-2-phenylethyl)boronic acid] |  |
|  | 21.1 | 73 | 2.5 |  | CC(C)C=C(C#N)C(=O)N(C)c1cccc(C[C@H](NC(=O)c2cnccn2)C(=O)N[C@@H](Cc2ccccc2)B(O)O)c1 [Example 21, ((R)-1-((S)-3-(3-(2-cyano-N,4-dimethylpent-2-enamido)phenyl)-2-(pyrazine-2-carboxamido)propanamido)-2-phenylethyl)boronic acid] |  |
| 483 | 8.1 | 34 | 2.4 |  | CC(C)C=C(C#N)C(=O)N(C)c1cccc(C[C@H](NC(=O)c2cc(Cl)ccc2Cl)C(=O)N[C@@H](Cc2ccccc2)B(O)O)c1 [Example 20, ((R)-1-((S)-3-(3-(2-cyano-N,4-dimethylpent-2-enamido)phenyl)-2-(2,5-dichlorobenzamido)propanamido)-2-phenylethyl)boronic acid] | IC50 (PBMC/LMP2 [14]): 208 nM |
